Laboratory results from patent US20240325429A1, “MINOR SPLICEOSOME TARGETING COMPOSITIONS AND THEIR USE IN CANCER TREATMENT” (UNIVERSITÄT BERN, priority 2021, published 2024).

What was measured:
Assay type in all cases: cell-based, human
major spliceosome = assay: Luciferase major intron splicing reporter assay; conditions: LNCaP and C4-2 cells, long term ADT/ARSi
Method: (§1) CMV-luc2CP/ARE (major intron splicing reporter), CMV-luc2CP (empty vector backbone control) and luc1CFH4 (minor splicing intron reporter) were a kind gift from Dr. Gideon Dreyfuss (University of Pennsylvania). DNA was amplified via chemical transformation of One Shot Mach1 T1 Phage-Resistant Chemically Competent E. coli cells (Invitrogen, C862003) and Sanger sequenced.
(§2) To determine the minor/major intron splicing rate cells were seeded in white 96 well plate (Huberlab, 7.655 098) (8000/well) and treated according to assay conditions. 24 hours prior analysis cells of each condition were co-transfected with each reporter plasmid and the empty vector backbone plasmid. In short 1.5 ul of P3000 reagent plus 0.5 ug of DNA and 1.5 ul Lipofectamine P300 were each diluted in 25 ul Opti-MEMH medium. Both mixes were pooled and incubated for 20 minutes before the solution was added to the cells. Luciferase expression was measured with the Dual-Glo® Luciferase Assay System (Promega, E2940): media was removed, 100 ul of PLB were added and cells were frozen for two hours at −20 C. After a one hour shaking step 100 ul of LAR substrate was added and Firefly luciferase expression was measured with a Tecan Infinite M200PRO reader. Values were calculated as x-fold of CMV-luc2CP expression and subsequently as the x-fold of the respective reference control.

[1] = test system: C4-2 cells and enzalutamide-resistant LNCaP (L-rENZ) cells; assay: Growth curves with siRNA +/- enzalutamide; conditions: CRPC C4-2 and L-rENZ cells; compared with EZH2 plus enzalutamide
Method: For growth experiments cells were treated with siRNA and two hours later with 20 uM enzalutamide. Enzalutamide was refreshed 3 days later.
Cells were seeded in a 6 well (400 000) and treated according to assay conditions over night. Cells were then seeded in Poly-L-Lysine coated 96-well plates (8000 cells/well, n=3 per condition) and WCM154 cells were seeded in a collagen-coated 96-well plates (5000 cells/well, n=3 per condition). Remaining cells were used for U6atac KD control via qRT-PCR. Cell viability was determined after 24, 48, 72, and 96 h with a Tecan Infinite M200PRO reader using the CellTiter-Glo® Luminescent Cell Viability Assay according to manufacturer's directions (Promega, G9243). Viability values were calculated as x-fold of cells transfected with siRNA for 0 h. Cell confluence (n=4 per condition) was determined using the Incucyte S3 instrument and the IncuCyte S3 2018B software (Essen Bioscience, Germany). Values were calculated as x-fold of timepoint 0 and then as fold-change in confluency as compared to siScrambled treated controls.

minor spliceosome (MiS) = assay: Luciferase minor intron splicing reporter assay
Method: as §1
as §2, with “24” for “To determine the minor/major intron splicing rate cells were seeded in white 96 well plate (Huberlab, 7.655 098) (8000/well) and treated according to assay conditions. 24”

**Q.** With CNC(=O)c1ccc(N2C(=S)N(c3ccc(C#N)c(C(F)(F)F)c3)C(=O)C2(C)C)cc1F [enzalutamide] as the molecule, how does the “major splicing (luc-reporter)” value (major spliceosome) read?
**A.** Its value is “only limited effects”.

**Q.** What about the “cell growth / proliferation” value [1] of the same molecule?
**A.** The value was “increased CRPC growth in resistant cells”.

**Q.** What about the “MiS activity (minor splicing luc-reporter)” value (minor spliceosome (MiS); LNCaP and C4-2 cells, long term ADT/ARSi) of the same molecule?
**A.** Its value is “significant increase in MiS activity”.

**Q.** Which “effect on minor intron splicing (luc-splicing reporter)” value (minor spliceosome (MiS); LNCaP, C4-2, H660 cells and MSK8, MSK10, MSK16, PM154, PM1262 organoids, p38MAPK activation) does the source give for COc1ccc(C[C@H]2NC[C@H](O)[C@H]2OC(C)=O)cc1 [anisomycin] here?
**A.** The value was “only observed in PCa-NE cells and organoids (H660, PM154 and MSK10)”.

**Q.** How did the “MiS activity (luciferase reporter)” value (minor spliceosome (MiS)) turn out when C[C@]12CCC(=O)C[C@@H]1CC[C@@H]1[C@@H]2CC[C@]2(C)[C@@H](O)CC[C@@H]12 [dihydrotestosterone] was run?
**A.** The value was “rescued MiS activity to levels observed in L-AR alone”.
